SMILES strings stand for the structures.

The assay concerns the target T1, Abl Y393F (Mus musculus, UniProt P00520, Y393F).
T1 construct: 0.4 μg/ml Abl kinase domain; Met-Ser-Leu (vector-derived) (N); made in house
T1 sequence (P00520 242-493 Y393F limits assumed): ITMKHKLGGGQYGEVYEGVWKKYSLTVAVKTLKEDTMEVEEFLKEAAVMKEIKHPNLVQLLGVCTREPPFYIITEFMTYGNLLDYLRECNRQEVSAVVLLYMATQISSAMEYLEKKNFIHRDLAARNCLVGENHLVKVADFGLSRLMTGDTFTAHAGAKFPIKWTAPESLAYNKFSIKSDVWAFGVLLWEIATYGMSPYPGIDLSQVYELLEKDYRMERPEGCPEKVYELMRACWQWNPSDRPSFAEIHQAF
Kind of assay: Abl Y393F kinase enzyme assay. The conditions noted are these: read-out: Abl_Y393F IC50. The assay is classed as biochemical. The text has this:
Although the first of these examples uses the kinase domain of a mutant form of Abl T315I (“Abl T315I KD”), the kinase assays may use various forms of mutant and wild type enzymes, including, for example, the entire protein, the kinase domain, or a portion thereof (e.g. Abl Y393F). The kinases used in the assays may also be of varying phosphorylation states. In the c-Abl example, a mutant kinase at a zero phosphorylation state was used.
In addition to the c-Abl PK/LDH coupled assay (above), homogeneous luminescence-based inhibitor screening assays were developed for c-Abl, MET, AurA, and PDK1 kinases (among others). Each of these assays made use of an ATP depletion assay (Kinase-Glo™, Promega Corporation, Madison, Wis.) to quantitate kinase activity. The Kinase-Glo™ format uses a thermostable luciferase to generate luminescent signal from ATP remaining in solution following the kinase reaction. The luminescent signal is inversely correlated with the amount of kinase activity.
cAbl Luminescence-Based Enzyme Assay
Materials: Abl substrate peptide=EAIYAAPFAKKK SEQ ID NO:1)-OH (Biopeptide, San Diego, Calif.), ATP (Sigma Cat#A-3377, FW=551), HEPES buffer, pH 7.5, Bovine serum albumin (BSA) (Roche 92423420), MgCl2, Staurosporine (Streptomyces sp. Sigma Cat#85660-1MG), white Costar 384-well flat-bottom plate (VWR Cat#29444-088), Abl kinase (see below), Kinase-Glo™ (Promega Cat#V6712).
Stock Solutions: 10 mM Abl substrate peptide (13.4 mg/ml in miliQH2O) stored at −20° C.; 100 mM HEPES buffer, pH 7.5 (5 ml 1M stock+45 ml miliQH2O); 10 mM ATP (5.51 mg/ml in dH2O) stored at −20° C. (diluted […] into total of 10 ml miliQH2O daily=50 μM ATP working stock); 1% BSA (1 g BSA in 100 ml 0.1 M HEPES, pH 7.5, stored at −20° C.), 100 mM MgCl2; 200 μM Staurosporine, 2× Kinase-Glo™ reagent (made fresh or stored at −20° C.).
Standard Assay Setup for 384-well format (20 μl kinase reaction, 40 μl detection reaction): 10 mM MgCl2; 100 μM Abl substrate peptide; 0.1% BSA; 1 μl test compound (in DMSO); 0.4 μg/ml Abl kinase domain; 10 μM ATP; 100 mM HEPES buffer. Positive controls contained DMSO with no test compound. Negative controls contained 10 μM staurosporine. The kinase reactions were initiated at time t=0 by the addition of ATP. Kinase reactions were incubated at 21° C. for 30 min, then 20 μl of Kinase-Glo™ reagent were added to each well to quench the kinase reaction and initiate the luminescence reaction. After a 20 min incubation at 21° C., the luminescence was detected in a plate-reading luminometer.
The term IC50 denotes the concentration needed to halve the response being measured. As for `COc1ccccc1-c1n[nH]c2ncc(Br)cc12`, the 50% inhibitory concentration (IC50) is under 1 µM.

Consider `c1ccc(-c2n[nH]c3ncc(-c4ccc5[nH]ccc5c4)cc23)cc1`, for which the IC50 is under 1 µM.

As for `Oc1cccc(-c2cnc3[nH]nc(-c4ccccc4)c3c2)c1`, the concentration for half-maximal inhibition (IC50) was under 1 µM.

For the compound `c1ccc(-c2n[nH]c3ncc(-c4cccnc4)cc23)cc1`, the IC50 was under 1 µM.

Regarding `COc1ccccc1-c1n[nH]c2ncc(-c3cccnc3)cc12`, the IC50 was under 1 µM.

For the compound `COc1ccccc1-c1n[nH]c2ncc(-c3cccc(C(=O)N(C)C)c3)cc12`, the IC50 was under 1 µM.

With `COc1ccccc1-c1n[nH]c2ncc(-c3ccc(O)c(C(=O)N4CCOCC4)c3)cc12`, the IC50 was under 1 µM.

Take `CCOc1ccccc1-c1n[nH]c2ncc(-c3cccc(C(=O)N4CCOCC4)c3)cc12`: the half-inhibitory concentration (IC50) is under 1 µM.

`COc1ncc(-c2n[nH]c3ncc(-c4cccc(C(=O)N5CCOCC5)c4)cc23)c(OC)n1`: the IC50 is under 1 µM.

As to `COc1ccccc1-c1cnc2[nH]nc(-c3ccccc3OC)c2c1`, the IC50 was under 1 µM.

Turning to `COc1ccccc1-c1n[nH]c2ncc(-c3cccc(C(=O)NC(C)C)c3)cc12`, the IC50 was under 1 µM.

Turning to `O=C(c1cccc(-c2cnc3[nH]nc(-c4ccc5cc[nH]c5c4)c3c2)c1)N1CCOCC1`, the IC50 is under 1 µM.

For the compound `COc1ccccc1-c1n[nH]c2ncc(-c3cccc(C(=O)N4CCN(C)CC4)c3)cc12`, the IC50 is under 1 µM.

Regarding `CCc1ccccc1-c1n[nH]c2ncc(-c3cccc(C(=O)N4CCOCC4)c3)cc12`, the IC50 is under 1 µM.

As for `Cc1cc(F)ccc1-c1n[nH]c2ncc(-c3cccc(C(=O)N4CCOCC4)c3)cc12`, the concentration for half-maximal inhibition (IC50) was under 1 µM.

Take `COc1c(F)cccc1-c1n[nH]c2ncc(-c3cccc(C(=O)N4CCOCC4)c3)cc12`: the IC50 is under 1 µM.

Take `Cc1ccsc1-c1n[nH]c2ncc(-c3cccc(C(=O)N4CCOCC4)c3)cc12`: the IC50 was under 1 µM.

For `COc1ccccc1-c1n[nH]c2ncc(-c3cccc(C(=O)N4CCC(CO)CC4)c3)cc12`, the IC50 is under 1 µM.

As for `O=C(c1cccc(-c2cnc3[nH]nc(-c4cccc5cccnc45)c3c2)c1)N1CCOCC1`, the IC50 was under 1 µM.

As to `Cn1ccc2cc(-c3n[nH]c4ncc(-c5cccc(C(=O)N6CCOCC6)c5)cc34)ccc21`, the 50% inhibitory concentration (IC50) is under 1 µM.

With `O=C(c1cccc(-c2cnc3[nH]nc(-c4ccncc4Cl)c3c2)c1)N1CCOCC1`, the IC50 is under 1 µM.

Regarding `COc1ccccc1-c1n[nH]c2ncc(-c3cccc(C(=O)N4CCCC4)c3)cc12`, the half-maximal inhibitory concentration (IC50) was under 1 µM.

For the compound `COc1ccccc1-c1n[nH]c2ncc(-c3ccc(C(=O)N4CCCC4)cc3)cc12`, the IC50 was under 1 µM.

As to `COc1ccccc1-c1n[nH]c2ncc(-c3ccc(C(=O)NC4CC4)cc3)cc12`, the IC50 is under 1 µM.

For the compound `COc1ccccc1-c1n[nH]c2ncc(-c3cnc4[nH]n(C)c(=O)c4c3)cc12`, the concentration for half-maximal inhibition (IC50) is under 1 µM.

Regarding `COc1ccccc1-c1n[nH]c2ncc(-c3cccc(S(=O)(=O)NC4CC4)c3)cc12`, the half-inhibitory concentration (IC50) is under 1 µM.

On to `COc1ccccc1-c1n[nH]c2ncc(-c3cccc(C(=O)N4CCN(CCN(C)C)CC4)c3)cc12`, for which the concentration for half-maximal inhibition (IC50) is under 1 µM.

For the compound `CCN1CCN(C(=O)c2cccc(-c3cnc4[nH]nc(-c5cc(F)ccc5OC)c4c3)c2)CC1`, the IC50 is under 1 µM.

Take `COc1cc(-c2cnc3[nH]cc(-c4ccc(C)cc4)c3n2)ccc1O`: the IC50 was under 1 µM.

Turning to `COc1ccccc1-c1n[nH]c2ncc(-c3ccc(C(=O)N4CCN(C)CC4)cc3)cc12`, the IC50 was under 1 µM.

Consider `COc1cc(-c2cnc3[nH]nc(-c4ccccc4)c3c2)ccc1O`, for which the IC50 is under 1 µM.

As to `COc1ccccc1-c1n[nH]c2ncc(-c3ccc(C(=O)N4CCCCC4)cc3)cc12`, the IC50 lay within 1 to 10 µM.

Consider `COc1ccccc1-c1n[nH]c2ncc(-c3ccc(C(=O)N4CCOCC4)cc3)cc12`, for which the IC50 was under 1 µM.

As to `COc1ccccc1-c1c[nH]c2ncc(-c3cccc(C(=O)N(C)C)c3)nc12`, the IC50 is under 1 µM.
